Data reported in patent US6700013B2, “Tricyclic fused heterocycle compounds, process for preparing the same and use thereof” (Nippon Suisan Kaisha, Ltd., priority 1999, dated 2004).

SMILES	melting point
CCC1C(=O)c2cc(O)c(O)cc2Sc2cc(-c3ccc(OC(F)(F)F)cc3)ccc21 (stereo not shown) [Example 169]	216.8 to 219.1 °C
Oc1cc(O)c2c(c1)Sc1ccc(-c3cccs3)cc1CC2 [Example 126]	207.3 to 208.1 °C
CCC1C(=O)c2cc(O)c(O)cc2Sc2ccc(-c3ccco3)cc21 (stereo not shown) [Example 159]	238.7 to 241.7 °C
C[Si](C)(C)CCc1ccc2c(c1)CCc1c(O)cc(O)cc1O2	125.2 to 126.9 °C
CSc1ccc2c(c1)Sc1cc(O)c(O)cc1C(=O)C2 [Example 23]	232 to 236.9 °C
CCCC(=O)c1ccc2c(c1)CCc1c(O)cc(O)cc1S2 [Example 129]	151.8 to 152.8 °C
CCC1C(=O)c2cc(O)c(O)cc2Sc2cc(-c3cccc(N)c3)ccc21 (stereo not shown) [Example 176]	245.5 to 246.4 °C
COc1cc(O)c2c(c1)Sc1ccc(Br)cc1CC2=O [Example 14]	187.5 °C
CCC1C(=O)c2cc(O)c(O)cc2Sc2cc(-c3ccc(-c4ccccc4)cc3)ccc21 (stereo not shown) [Example 171]	> 300 °C
CCCCCCc1ccc2c(c1)CCc1c(O)cc(O)cc1O2	135.6 to 137.6 °C
CCON=C(C)c1ccc2c(c1)CCc1c(O)cc(O)cc1S2 [Example 139]	110.7 to 112.4 °C
O=C(c1ccc2c(c1)CCc1c(O)cc(O)cc1S2)C1CC1 [Example 135]	142.2 to 143.5 °C
O=C1Cc2ccc(Br)cc2Sc2cc(O)c(O)cc21 [Example 20]	> 250 °C
CSc1ccc2c(c1)C=Cc1c(O)cc(O)cc1S2 [Example 28]	182.9 to 184.4 °C
Oc1cc(O)c2c(c1)Sc1cc(-c3cccs3)ccc1CC2 [Example 123]	196.1 to 198.5 °C
O=C(c1ccc2c(c1)CCc1c(O)cc(O)cc1S2)C1CCC1 [Example 134]	141.2 to 141.7 °C
CON=C(C)c1ccc2c(c1)CCc1c(O)cc(O)cc1S2 [Example 138]	176.7 to 177.6 °C
CCCCC(=O)c1ccc2c(c1)CCc1c(O)cc(O)cc1S2 [Example 131]	155.1 to 158.7 °C
CCC1C(=O)c2cc(O)c(O)cc2Sc2ccc(-c3ccccc3)cc21 (stereo not shown) [Example 163]	225.7 to 227.3 °C
Oc1cc(O)c2c(c1)Sc1ccc(-c3ccco3)cc1CC2 [Example 127]	213.7 to 214.7 °C
N#Cc1ccc2c(c1)CCc1c(O)cc(O)cc1O2 [Example 122]	211.8 to 217.3 °C
CCC1C(=O)c2cc(O)c(O)cc2Sc2cc(-c3cc4ccccc4o3)ccc21 (stereo not shown) [Example 168]	293.2 °C (dec.)
CC1=Cc2cc(O)c(O)cc2Sc2ccccc21 [Example 145]	68.2 to 70.1 °C
CCC1C(=O)c2cc(O)c(O)cc2Sc2ccc(SC)cc21 (stereo not shown) [Example 36]	199.6 to 200.5 °C

Now from value to molecule:

melting point	SMILES
163.5 to 165.8 °C	Cc1ccccc1-c1ccc2c(c1)Oc1cc(O)cc(O)c1C(=O)C2 [Example 72]
257.9 to 259.9 °C	O=C1Cc2ccc(-c3cc4ccccc4o3)cc2Oc2cc(O)cc(O)c21 [Example 95]
150.2 to 152.6 °C	Oc1cc(O)c2c(c1)Oc1cc(-c3cccc(C(F)(F)F)c3)ccc1CC2 [Example 117]
176.7 to 179.2 °C	Oc1cc(O)c2c(c1)Oc1ccc(-c3ccccc3)cc1CC2 [Example 109]
261.6 to 263.2 °C	O=C1Cc2ccc(-c3ccc(-c4ccccc4)cc3)cc2Oc2cc(O)cc(O)c21 [Example 96]
236.4 to 237.3 °C	O=C1Cc2cc(Br)ccc2Sc2cc(O)cc(O)c21 [Example 13]
195.5 to 195.8 °C	O=C(Cc1ccc2c(c1)Oc1cc(O)cc(O)c1C(=O)C2)C1=CCCCC1 [Example 68]
125.9 to 127.7 °C	O=C1Cc2ccc(CCc3ccccc3)cc2Oc2cc(O)cc(O)c21 [Example 51]
249.6 to 250.8 °C	O=C1Cc2ccc(-c3ccco3)cc2Oc2cc(O)cc(O)c21 [Example 70]
239.1 to 242.6 °C	O=C1Cc2ccc(-c3ccc(O)cc3O)cc2Oc2cc(O)cc(O)c21 [Example 100]
208.9 to 213.6 °C	O=C1Cc2cc(-c3cccc(Cl)c3)ccc2Oc2cc(O)cc(O)c21 [Example 61]
225.3 to 226.5 °C	O=C1Cc2ccc(-c3cccc(C(F)(F)F)c3)cc2Sc2cc(O)cc(O)c21 [Example 91]
159 to 160.3 °C	CCC(=O)c1ccc2c(c1)CCc1c(O)cc(O)cc1O2 [Example 10, 8-Propionyl-10,11-dihydrodibenz[b,f]oxepin-1,3-diol]
151.8 to 152.7 °C	Oc1cc(O)c2c(c1)Oc1ccc(CCc3ccccc3)cc1CC2 [Example 113]
229.8 to 231.6 °C	O=C1Cc2ccc(-c3ccc(O)c(O)c3)cc2Oc2cc(O)cc(O)c21 [Example 98]
244.3 to 250.7 °C	O=C1Cc2cc(-c3cccc([N+](=O)[O-])c3)ccc2Oc2cc(O)cc(O)c21 [Example 56]
175.1 to 178.3 °C	Oc1cc2c(c(O)c1O)CCc1cc(-c3ccccc3)ccc1O2 [Example 125]

melting point	SMILES
105.6 to 106.8 °C	CCCCc1ccc2c(c1)CC(=O)c1c(O)cc(O)cc1O2 [Example 50]
91.8 to 94.8 °C	Cc1ccccc1-c1ccc2c(c1)CC(=O)c1c(O)cc(O)cc1O2 [Example 62]
163.6 to 173.9 °C	Oc1cc(O)c2c(c1)Oc1ccc(-c3ccco3)cc1CC2 [Example 114]
293.9 to 300.1 °C	O=C1Cc2cc(-c3cccnc3)ccc2Oc2cc(O)cc(O)c21 [Example 55]
214.3 to 215.3 °C	O=C1Cc2ccc(-c3cccs3)cc2Sc2cc(O)cc(O)c21 [Example 81]
> 200 °C (dec.)	O=C1Cc2ccc(Br)cc2Sc2cc(O)cc(O)c21 [Example 9, 3-Bromo-7,9-dihydroxy-10,11-dihydrodibenzo[b,f]thiepin-10-one]
180.3 to 191.6 °C	O=C1Cc2ccc(-c3cccc(Cl)c3)cc2Sc2cc(O)cc(O)c21 [Example 90]
> 300 °C (dec.)	Nc1cccc(-c2ccc3c(c2)CC(=O)c2c(O)cc(O)cc2O3)c1 [Example 59]
274 to 279 °C (dec.)	CC(=O)c1ccc(-c2ccc3c(c2)CC(=O)c2c(O)cc(O)cc2O3)cc1 [Example 65]
178.1 to 198.3 °C	Cc1ccccc1-c1ccc2c(c1)Sc1cc(O)cc(O)c1C(=O)C2 [Example 89]
209.7 to 212 °C	O=C1Cc2ccc(-c3ccccc3)cc2Sc2cc(O)cc(O)c21 [Example 87]
137.1 to 143.2 °C	Oc1cc(O)c2c(c1)Oc1cc(-c3cccc(Cl)c3)ccc1CC2 [Example 118]
195.1 to 197.1 °C	Cc1ccc(-c2ccc3c(c2)Oc2cc(O)cc(O)c2CC3)cc1 [Example 112]
189.4 to 191.1 °C	O=C1Cc2ccc(C#Cc3ccccc3)cc2Oc2cc(O)cc(O)c21 [Example 101]
> 250 °C (dec.)	O=C1Cc2ccc(I)cc2Sc2cc(O)cc(O)c21 [Example 8, 3-Iodo-7,9-dihydroxy-10,11-dihydrodibenzo[b,f]thiepin-10-one]
228.4 to 235.2 °C	Cc1ccc(-c2ccc3c(c2)Sc2cc(O)cc(O)c2C(=O)C3)cc1 [Example 86]
268.4 to 268.5 °C	O=C1Cc2cc(-c3cc4ccccc4o3)ccc2Oc2cc(O)cc(O)c21 [Example 94]
